Patent US12540143B2, “Methods and compositions for targeted protein degradation” (Ranok Therapeutics (Hangzhou) Co. Ltd., priority 2019, dated 2026)
pIC50: −log10 of the molar value.

Each molecule was assayed on MV4-11 cells (assay: MV4-11 Cytotoxicity Assay). Conditions: Homo sapiens, MV4-11; 72 hr, CCK-8; read-out: MV4-11 cytotoxicity.
Assay type: cell-based, human

SMILES | pIC50
Cc1sc2c(c1C)C(c1ccc(Cl)cc1)=N[C@@H](CC(=O)N1CCC(CCN3CCC(Cc4ccc(-n5c(O)nnc5-c5cc(C(C)C)c(O)cc5O)cc4)CC3)CC1)c1nnc(C)n1-2 [Compound 80, (S)-2-(4-(4-chlorophenyl)-2,3,9-trimethyl-6H-thieno[3,2-f][1,2,4]triazolo[4,3-a][1,4]diazepin-6-yl)-1-(4-(2-(4-(4-(3-(2,4-dihydroxy-5-isopropylphenyl)-5-hydroxy-4H-1,2,4-triazol-4-yl)benzyl)piperidin-1-yl)ethyl)piperidin-1-yl)ethan-1-one, trifluoroacetic acid] | > 7.00
Cc1sc2c(c1C)C(c1ccc(Cl)cc1)=N[C@@H](CC(=O)N[C@H](C)c1cccc(CN3CCC(Cc4ccc(-n5c(O)nnc5-c5cc(C(C)C)c(O)cc5O)cc4)CC3)c1)c1nnc(C)n1-2 [Compound 81, 2-((S)-4-(4-chlorophenyl)-2,3,9-trimethyl-6H-thieno[3,2-f][1,2,4]triazolo[4,3-a][1,4]diazepin-6-yl)-N—((R)-1-(3-((4-(4-(3-(2,4-dihydroxy-5-isopropylphenyl)-5-hydroxy-4H-1,2,4-triazol-4-yl)benzyl)piperidin-1-yl)methyl)phenyl)ethyl)acetamide, trifluoroacetic acid] | > 7.00
Cc1sc2c(c1C)C(c1ccc(Cl)cc1)=N[C@@H](CC(=O)N1CCC(Cc3ccc(CN(C)Cc4ccc(-n5c(O)nnc5-c5cc(C(C)C)c(O)cc5O)cc4)cc3)CC1)c1nnc(C)n1-2 [Compound 83, (S)-2-(4-(4-chlorophenyl)-2,3,9-trimethyl-6H-thieno[3,2-f][1,2,4]triazolo[4,3-a][1,4]diazepin-6-yl)-1-(4-(4-(((4-(3-(2,4-dihydroxy-5-isopropylphenyl)-5-hydroxy-4H-1,2,4-triazol-4-yl)benzyl)(methyl)amino)methyl)benzyl)piperidin-1-yl)ethan-1-one, trifluoroacetic acid] | > 7.00
Cc1sc2c(c1C)C(c1ccc(Cl)cc1)=N[C@@H](CC(=O)N1CCC(CN3CCC(Cc4ccc(-n5c(C(=O)NCC(F)(F)F)nnc5-c5cc(C(C)C)c(O)cc5O)cc4)CC3)CC1)c1nnc(C)n1-2 [Compound 85, (S)-4-(4-((1-((1-(2-(4-(4-chlorophenyl)-2,3,9-trimethyl-6H-thieno[3,2-f][1,2,4]triazolo[4,3-a][1,4]diazepin-6-yl)acetyl)piperidin-4-yl)methyl)piperidin-4-yl)methyl)phenyl)-5-(2,4-dihydroxy-5-isopropylphenyl)-N-(2,2,2-trifluoroethyl)-4H-1,2,4-triazole-3-carboxamide, formic acid] | > 7.00
CCc1cc(-c2nnc(C(=O)NCC(F)(F)F)n2-c2ccc(CC3CCN(CC4CCN(C(=O)C[C@@H]5N=C(c6ccc(Cl)cc6)c6c(sc(C)c6C)-n6c(C)nnc65)CC4)CC3)cc2)c(O)cc1O [Compound 86, (S)-4-(4-((1-((1-(2-(4-(4-chlorophenyl)-2,3,9-trimethyl-6H-thieno[3,2-f][1,2,4]triazolo[4,3-a][1,4]diazepin-6-yl)acetyl)piperidin-4-yl)methyl)piperidin-4-yl)methyl)phenyl)-5-(5-ethyl-2,4-dihydroxyphenyl)-N-(2,2,2-trifluoroethyl)-4H-1,2,4-triazole-3-carboxamide, trifluoroacetic acid] | > 7.00
CCNC(=O)c1nnc(-c2cc(CC)c(O)cc2O)n1-c1ccc(CC2CCN(CC3CCN(C(=O)C[C@@H]4N=C(c5ccc(Cl)cc5)c5c(sc(C)c5C)-n5c(C)nnc54)CC3)CC2)cc1 [Compound 87, (S)-4-(4-((1-((1-(2-(4-(4-chlorophenyl)-2,3,9-trimethyl-6H-thieno[3,2-f][1,2,4]triazolo[4,3-a][1,4]diazepin-6-yl)acetyl)piperidin-4-yl)methyl)piperidin-4-yl)methyl)phenyl)-N-ethyl-5-(5-ethyl-2,4-dihydroxyphenyl)-1H-1,2,414-triazole-3-carboxamide, trifluoroacetic acid] | > 7.00
CCc1cc(-c2nnc(O)n2-c2ccc(CC3CCN(CC4CCN(C(=O)C[C@@H]5N=C(c6ccc(Cl)cc6)c6c(sc(C)c6C)-n6c(C)nnc65)CC4)CC3)cc2)c(O)cc1O [Compound 88, (S)-2-(4-(4-chlorophenyl)-2,3,9-trimethyl-6H-thieno[3,2-f][1,2,4]triazolo[4,3-a][1,4]diazepin-6-yl)-1-(4-((4-(4-(3-(5-ethyl-2,4-dihydroxyphenyl)-5-hydroxy-4H-1,2,4-triazol-4-yl)benzyl)piperidin-1-yl)methyl)piperidin-1-yl)ethan-1-one, formic acid] | > 7.00
Cc1sc2c(c1C)C(c1ccc(Cl)cc1)=N[C@@H](CC(=O)NCc1ccc(CN3CCC(Cc4ccc(-n5c(O)nnc5-c5cc(C(C)C)c(O)cc5O)cc4)CC3)cc1)c1nnc(C)n1-2 [Compound 89, (S)-2-(4-(4-chlorophenyl)-2,3,9-trimethyl-6H-thieno[3,2-f][1,2,4]triazolo[4,3-a][1,4]diazepin-6-yl)-N-(4-((4-(4-(3-(2,4-dihydroxy-5-isopropylphenyl)-5-hydroxy-4H-1,2,4-triazol-4-yl)benzyl)piperidin-1-yl)methyl)benzyl)acetamide, trifluoroacetic acid] | > 7.00
CCNC(=O)c1nnc(-c2cc(C(C)C)c(O)cc2O)n1-c1ccc(CC2CCN(CC3CCN(C(=O)C[C@@H]4N=C(c5ccc(Cl)cc5)c5c(sc(C)c5C)-n5c(C)nnc54)CC3)CC2)cc1 [Compound 90, (S)-4-(4-((1-((1-(2-(4-(4-chlorophenyl)-2,3,9-trimethyl-6H-thieno[3,2-f][1,2,4]triazolo[4,3-a][1,4]diazepin-6-yl)acetyl)piperidin-4-yl)methyl)piperidin-4-yl)methyl)phenyl)-5-(2,4-dihydroxy-5-isopropylphenyl)-N-ethyl-4H-1,2,4-triazole-3-carboxamide] | > 7.00
CCc1cc(-c2nnc(C(=O)NCC(F)(F)F)n2-c2ccc(CC3CCN(Cc4ccc(CNC(=O)C[C@@H]5N=C(c6ccc(Cl)cc6)c6c(sc(C)c6C)-n6c(C)nnc65)cc4)CC3)cc2)c(O)cc1O [Compound 91, (S)-4-(4-((1-(4-((2-(4-(4-chlorophenyl)-2,3,9-trimethyl-6H-thieno[3,2-f][1,2,4]triazolo[4,3-a][1,4]diazepin-6-yl)acetamido)methyl)benzyl)piperidin-4-yl)methyl)phenyl)-5-(5-ethyl-2,4-dihydroxyphenyl)-N-(2,2,2-trifluoroethyl)-4H-1,2,4-triazole-3-carboxamide, trifluoroacetic acid] | > 7.00
Cc1sc2c(c1C)C(c1ccc(Cl)cc1)=N[C@@H](CC(=O)N(C)[C@H](C)c1ccc(CN3CCN(Cc4ccc(-n5c(O)nnc5-c5cc(C(C)C)c(O)cc5O)cc4)CC3)cc1)c1nnc(C)n1-2 [Compound 92, 2-((S)-4-(4-chlorophenyl)-2,3,9-trimethyl-6H-thieno[3,2-f][1,2,4]triazolo[4,3-a][1,4]diazepin-6-yl)-N—((R)-1-(4-((4-(4-(3-(2,4-dihydroxy-5-isopropylphenyl)-5-hydroxy-4H-1,2,4-triazol-4-yl)benzyl)piperazin-1-yl)methyl)phenyl)ethyl)-N-methylacetamide, trifluoroacetic acid] | 6.00 to 7.00
Cc1sc2c(c1C)C(c1ccc(Cl)cc1)=N[C@@H](CC(=O)N(C)[C@H](C)c1ccc(CN3CCC(Cc4ccc(-n5c(O)nnc5-c5cc(C(C)C)c(O)cc5O)cc4)CC3)cc1)c1nnc(C)n1-2 [Compound 93, 2-((S)-4-(4-chlorophenyl)-2,3,9-trimethyl-6H-thieno[3,2-f][1,2,4]triazolo[4,3-a][1,4]diazepin-6-yl)-N—((R)-1-(4-((4-(4-(3-(2,4-dihydroxy-5-isopropylphenyl)-5-hydroxy-4H-1,2,4-triazol-4-yl)benzyl)piperidin-1-yl)methyl)phenyl)ethyl)-N-methylacetamide, trifluoroacetic acid] | > 7.00
Cc1sc2c(c1C)C(c1ccc(Cl)cc1)=N[C@@H](CC(=O)N1CCC(CN3CCC(Cc4ccc(-n5c(O)nnc5-c5cc(C(C)C)c(O)cc5O)cc4)CC3)CC1)c1nnc(C)n1-2 [Compound 94, (S)-2-(4-(4-chlorophenyl)-2,3,9-trimethyl-6H-thieno[3,2-f][1,2,4]triazolo[4,3-a][1,4]diazepin-6-yl)-1-(4-((4-(4-(3-(2,4-dihydroxy-5-isopropylphenyl)-5-hydroxy-4H-1,2,4-triazol-4-yl)benzyl)piperidin-1-yl)methyl)piperidin-1-yl)ethan-1-one, trifluoroacetic acid] | > 7.00
Cc1sc2c(c1C)C(c1ccc(Cl)cc1)=N[C@@H](CC(=O)NCCc1ccc(CN3CCC(Cc4ccc(-n5c(C(=O)NCC(F)(F)F)nnc5-c5cc(C(C)C)c(O)cc5O)cc4)CC3)cc1)c1nnc(C)n1-2 [Compound 95, (S)-4-(4-((1-(4-(2-(2-(4-(4-chlorophenyl)-2,3,9-trimethyl-6H-thieno[3,2-f][1,2,4]triazolo[4,3-a][1,4]diazepin-6-yl)acetamido)ethyl)benzyl)piperidin-4-yl)methyl)phenyl)-5-(2,4-dihydroxy-5-isopropylphenyl)-N-(2,2,2-trifluoroethyl)-4H-1,2,4-triazole-3-carboxamide, trifluoroacetic acid] | > 7.00
Cc1sc2c(c1C)C(c1ccc(Cl)cc1)=N[C@@H](CC(=O)NCc1ccc(CN3CCC(Cc4ccc(-n5c(C(=O)NCC(F)(F)F)nnc5-c5cc(C(C)C)c(O)cc5O)cc4)CC3)cc1)c1nnc(C)n1-2 [Compound 96, (S)-4-(4-((1-(4-((2-(4-(4-chlorophenyl)-2,3,9-trimethyl-6H-thieno[3,2-f][1,2,4]triazolo[4,3-a][1,4]diazepin-6-yl)acetamido)methyl)benzyl)piperidin-4-yl)methyl)phenyl)-5-(2,4-dihydroxy-5-isopropylphenyl)-N-(2,2,2-trifluoroethyl)-4H-1,2,4-triazole-3-carboxamide, trifluoroacetic acid] | > 7.00
Cc1sc2c(c1C)C(c1ccc(Cl)cc1)=N[C@@H](CC(=O)N[C@H](C)c1cccc(CN3CCC(Cc4ccc(-n5c(C(=O)NCC(F)(F)F)nnc5-c5cc(C(C)C)c(O)cc5O)cc4)CC3)c1)c1nnc(C)n1-2 [Compound 97, 4-(4-((1-(3-((R)-1-(2-((S)-4-(4-chlorophenyl)-2,3,9-trimethyl-6H-thieno[3,2-f][1,2,4]triazolo[4,3-a][1,4]diazepin-6-yl)acetamido)ethyl)benzyl)piperidin-4-yl)methyl)phenyl)-5-(2,4-dihydroxy-5-isopropylphenyl)-N-(2,2,2-trifluoroethyl)-4H-1,2,4-triazole-3-carboxamide, trifluoroacetic acid] | > 7.00
